Assay results published in patent publication US20230085307A1, “PYRIDAZINONE COMPOUND AND HERBICIDE” (NISSAN CHEMICAL CORPORATION, priority 2019, published 2023).

Key:
[1] = system: oval-leafed pondweed; experiment: Test Example 1: herbicidal activity, application before weed generation under submerged conditions (Table 16, symbol C); format: in vivo, oval-leafed pondweed (Monochoria vaginalis); details: amount of applied herbicide 320 g/ha
Procedure, shortened: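 Alluvial soil was flooded to 4 cm depth, weed seeds were sown mixed and 2.5-leaf rice seedlings were transplanted. On sowing day, the compound's emulsion, diluted in water to a set dose, was applied to the water surface. Plants grew at 25–30 °C and were scored 0–5 after three weeks.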

[2] = system: lambsquarters; experiment: Test Example 4: herbicidal effect by soil treatment (Table 19, symbol O); format: in vivo, lambsquarters (Chenopodium album); details: amount of applied herbicide 320 g/ha
Procedure, shortened: (§1)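 Three weeks of greenhouse growth at 25° C. to 30° C. followed a uniform surface spray of water-diluted emulsion at a predetermined herbicide amount. Seeds had been sown beforehand under about 1.5 cm of sterilized diluvial soil. Grading followed criteria set out in an earlier test.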

[3] = system: wild oat; experiment: Test Example 4: herbicidal effect by soil treatment (Table 19, symbol I); format: in vivo, wild oat (Avena fatua); details: amount of applied herbicide 320 g/ha
Procedure, shortened: as §1

[4] = system: windgrass; experiment: Test Example 4: herbicidal effect by soil treatment (Table 19, symbol L); format: in vivo, windgrass (Apera spica-venti); details: amount of applied herbicide 320 g/ha
Procedure, shortened: as §1

[5] = system: velvetleaf; experiment: Test Example 5: herbicidal effect by foliage application, plastic box (Table 20, symbol M); format: in vivo, velvetleaf (Abutilon theophrasti); details: 320 g/ha; for M: velvetleaf, herbicidal effect grade: foliage application, three weeks after application; for herbicidal effect on M: velvetleaf (evaluation grade 0-5): foliage application after 14-day growth, evaluated three weeks after application
Procedure, shortened: (§2)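 Plants sown in sterilized diluvial soil and grown 14 days in a greenhouse at 25° C to 30° C, then sprayed on the foliage with the compound's emulsion diluted in water to a predetermined herbicide amount. Injury to weeds and crops scored three weeks after application on a visual rating scale.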

[6] = system: blackgrass; experiment: Test Example 5: herbicidal effect by foliage application, plastic box (Table 20, symbol J); format: in vivo, blackgrass (Alopecurus myosuroides); details: 320 g/ha; for J: blackgrass, herbicidal effect grade: foliage application, three weeks after application; for herbicidal effect on J: blackgrass (evaluation grade 0-5): foliage application after 14-day growth, evaluated three weeks after application
Procedure, shortened: as §2

[7] = system: Japanese bulrush; experiment: Test Example 2: herbicidal activity, application during weed generation under submerged conditions (Table 17, symbol B); format: in vivo, Japanese bulrush (Schoenoplectus juncoides); details: AAH 320 g/ha; application during weed generation, submerged conditions
Procedure, shortened: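 In this pot test, flooded alluvial soil (water depth 4 cm) holds all three species sown as a mixture. Once seedlings have one to two leaves, the compound's emulsion, thinned with water to the intended dose, is poured on the water; grading follows after three weeks on the earlier criteria.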

[8] = system: chickweed; experiment: Test Example 5: herbicidal effect by foliage application, plastic box (Table 20, symbol P); format: in vivo, common chickweed (Stellaria media); details: 320 g/ha; for P: chickweed, herbicidal effect grade: foliage application, three weeks after application; for herbicidal effect on P: chickweed (evaluation grade 0-5): foliage application after 14-day growth, evaluated three weeks after application
Procedure, shortened: as §2

[9] = system: rice flat sedge; experiment: Test Example 3: herbicidal effect by foliage application, Wagner pot (Table 18, symbol E); format: in vivo, rice flat sedge (Cyperus iria); details: 320 g/ha
Procedure, shortened: (§3)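 Plants were sown in alluvial soil held under 0.1–0.5 cm standing water and grown 14 days in a greenhouse at 25–30 °C. An emulsifiable formulation, water-diluted to the set dose, was then sprayed onto the foliage, and effects were scored three weeks later using previously defined criteria.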

[10] = system: barnyard grass; experiment: Test Example 5: herbicidal effect by foliage application, plastic box (Table 20, symbol H); format: in vivo, barnyard grass (Echinochloa crus-galli); details: 320 g/ha; for H: barnyard grass, herbicidal effect grade: foliage application, three weeks after application; for herbicidal effect on H: barnyard grass (evaluation grade 0-5): foliage application after 14-day growth, evaluated three weeks after application
Procedure, shortened: as §2

[11] = system: green foxtail; experiment: Test Example 4: herbicidal effect by soil treatment (Table 19, symbol G); format: in vivo, green foxtail (Setaria viridis); details: amount of applied herbicide 320 g/ha
Procedure, shortened: as §1

[12] = system: velvetleaf; experiment: Test Example 4: herbicidal effect by soil treatment (Table 19, symbol M); format: in vivo, velvetleaf (Abutilon theophrasti); details: amount of applied herbicide 320 g/ha
Procedure, shortened: as §1

[13] = system: Italian ryegrass; experiment: Test Example 5: herbicidal effect by foliage application, plastic box (Table 20, symbol K); format: in vivo, Italian ryegrass (Lolium multiflorum); details: 320 g/ha; for K: Italian ryegrass, herbicidal effect grade: foliage application, three weeks after application; for herbicidal effect on K: Italian ryegrass (evaluation grade 0-5): foliage application after 14-day growth, evaluated three weeks after application
Procedure, shortened: as §2

[14] = system: Italian ryegrass; experiment: Test Example 4: herbicidal effect by soil treatment (Table 19, symbol K); format: in vivo, Italian ryegrass (Lolium multiflorum); details: amount of applied herbicide 320 g/ha
Procedure, shortened: as §1

[15] = system: persian speedwell; experiment: Test Example 4: herbicidal effect by soil treatment (Table 19, symbol R); format: in vivo, Persian speedwell (Veronica persica); details: amount of applied herbicide 320 g/ha
Procedure, shortened: as §1

[16] = system: redroot pigweed; experiment: Test Example 4: herbicidal effect by soil treatment (Table 19, symbol N); format: in vivo, redroot pigweed (Amaranthus retroflexus); details: amount of applied herbicide 320 g/ha
Procedure, shortened: as §1

[17] = system: Chinese sprangletop; experiment: Test Example 3: herbicidal effect by foliage application, Wagner pot (Table 18, symbol D); format: in vivo, chinese sprangletop (Leptochloa chinensis); details: 320 g/ha
Procedure, shortened: as §3

SMILES	Herbicidal effect, C: oval-leafed pondweed [1]	O: lambsquarters, herbicidal effect grade [2]	I: wild oat, herbicidal effect grade [3]	L: windgrass, herbicidal effect grade [4]	M: velvetleaf, herbicidal effect grade [5]	J: blackgrass, herbicidal effect grade [6]	herbicidal effect rating, B: Japanese bulrush [7]	P: chickweed, herbicidal effect grade [8]	herbicidal effect on rice flat sedge (E) [9]	H: barnyard grass, herbicidal effect grade [10]	G: green foxtail, herbicidal effect grade [11]	M: velvetleaf, herbicidal effect grade [12]	K: Italian ryegrass, herbicidal effect grade [13]	K: Italian ryegrass, herbicidal effect grade [14]	R: persian speedwell, herbicidal effect grade [15]	N: redroot pigweed, herbicidal effect grade [16]	herbicidal effect on Chinese sprangletop (D) [17]	Herbicidal effect by soil treatment, O: lambsquarters [2]	Herbicidal effect by soil treatment, I: wild oat [3]	Herbicidal effect by soil treatment, L: windgrass [4]	also measured
CCOc1ccccc1-c1sc2cc(OCCOC)ccc2c1-c1c(O)c(C)nn(C)c1=O [3-123]	5 (Herbicidal rate of 90% or more (almost completely withered))	5 (Herbicidal rate of 90% or more (almost completely withered))	4 (Herbicidal rate of 70% or more and less than 90%)	5 (Herbicidal rate of 90% or more (almost completely withered))	5 (Herbicidal rate of 90% or more (almost completely withered))	5 (Herbicidal rate of 90% or more (almost completely withered))	3 (Herbicidal rate of 40% or more and less than 70%)	5 (Herbicidal rate of 90% or more (almost completely withered))	5 (Herbicidal rate of 90% or more (almost completely withered))	5 (Herbicidal rate of 90% or more (almost completely withered))	5 (Herbicidal rate of 90% or more (almost completely withered))	2 (Herbicidal rate of 20% or more and less than 40%)	5 (Herbicidal rate of 90% or more (almost completely withered))	5 (Herbicidal rate of 90% or more (almost completely withered))	5 (Herbicidal rate of 90% or more (almost completely withered))	5 (Herbicidal rate of 90% or more (almost completely withered))	5 (Herbicidal rate of 90% or more (almost completely withered))	–	–	–	–
COc1ccccc1-c1sc2cc(OCCSC)ccc2c1-c1c(O)c(C)nn(C)c1=O [3-125]	1 (Herbicidal rate of 5% or more and less than 20%)	5 (Herbicidal rate of 90% or more (almost completely withered))	0 (Herbicidal rate of 5% or less (almost no effect))	3 (Herbicidal rate of 40% or more and less than 70%)	4 (Herbicidal rate of 70% or more and less than 90%)	5 (Herbicidal rate of 90% or more (almost completely withered))	3 (Herbicidal rate of 40% or more and less than 70%)	5 (Herbicidal rate of 90% or more (almost completely withered))	5 (Herbicidal rate of 90% or more (almost completely withered))	3 (Herbicidal rate of 40% or more and less than 70%)	2 (Herbicidal rate of 20% or more and less than 40%)	4 (Herbicidal rate of 70% or more and less than 90%)	5 (Herbicidal rate of 90% or more (almost completely withered))	5 (Herbicidal rate of 90% or more (almost completely withered))	5 (Herbicidal rate of 90% or more (almost completely withered))	5 (Herbicidal rate of 90% or more (almost completely withered))	3 (Herbicidal rate of 40% or more and less than 70%)	–	–	–	–
C=C(C)C(=O)Oc1c(C)nn(C)c(=O)c1-c1c(-c2ccccc2OC)sc2cc(OC)ccc12 [3-155]	5 (Herbicidal rate of 90% or more (almost completely withered))	–	–	–	–	–	5 (Herbicidal rate of 90% or more (almost completely withered))	–	4 (Herbicidal rate of 70% or more and less than 90%)	–	–	–	–	–	–	–	4 (Herbicidal rate of 70% or more and less than 90%)	0 (Herbicidal rate of 5% or less (almost no effect))	0 (Herbicidal rate of 5% or less (almost no effect))	4 (Herbicidal rate of 70% or more and less than 90%)	herbicidal effect on M: velvetleaf (evaluation grade 0-5) [5]: 5 (Herbicidal rate of 90% or more (almost completely withered)); herbicidal effect on J: blackgrass (evaluation grade 0-5) [6]: 5 (Herbicidal rate of 90% or more (almost completely withered)); herbicidal effect on P: chickweed (evaluation grade 0-5) [8]: 5 (Herbicidal rate of 90% or more (almost completely withered)); herbicidal effect on H: barnyard grass (evaluation grade 0-5) [10]: 5 (Herbicidal rate of 90% or more (almost completely withered)); Herbicidal effect by soil treatment, G: green foxtail [11]: 0 (Herbicidal rate of 5% or less (almost no effect)); Herbicidal effect by soil treatment, M: velvetleaf [12]: 0 (Herbicidal rate of 5% or less (almost no effect)); herbicidal effect on K: Italian ryegrass (evaluation grade 0-5) [13]: 4 (Herbicidal rate of 70% or more and less than 90%); Herbicidal effect by soil treatment, K: Italian ryegrass [14]: 3 (Herbicidal rate of 40% or more and less than 70%); Herbicidal effect by soil treatment, R: persian speedwell [15]: 0 (Herbicidal rate of 5% or less (almost no effect)); Herbicidal effect by soil treatment, N: redroot pigweed [16]: 4 (Herbicidal rate of 70% or more and less than 90%)
COc1ccc2c(-c3c(OC(=O)c4ccccc4OC)c(C)nn(C)c3=O)c(-c3ccccc3OC)sc2c1 [3-158]	5 (Herbicidal rate of 90% or more (almost completely withered))	–	–	–	–	–	3 (Herbicidal rate of 40% or more and less than 70%)	–	4 (Herbicidal rate of 70% or more and less than 90%)	–	–	–	–	–	–	–	3 (Herbicidal rate of 40% or more and less than 70%)	0 (Herbicidal rate of 5% or less (almost no effect))	0 (Herbicidal rate of 5% or less (almost no effect))	0 (Herbicidal rate of 5% or less (almost no effect))	herbicidal effect on M: velvetleaf (evaluation grade 0-5) [5]: 5 (Herbicidal rate of 90% or more (almost completely withered)); herbicidal effect on J: blackgrass (evaluation grade 0-5) [6]: 5 (Herbicidal rate of 90% or more (almost completely withered)); herbicidal effect on P: chickweed (evaluation grade 0-5) [8]: 5 (Herbicidal rate of 90% or more (almost completely withered)); herbicidal effect on H: barnyard grass (evaluation grade 0-5) [10]: 5 (Herbicidal rate of 90% or more (almost completely withered)); Herbicidal effect by soil treatment, G: green foxtail [11]: 0 (Herbicidal rate of 5% or less (almost no effect)); Herbicidal effect by soil treatment, M: velvetleaf [12]: 0 (Herbicidal rate of 5% or less (almost no effect)); herbicidal effect on K: Italian ryegrass (evaluation grade 0-5) [13]: 4 (Herbicidal rate of 70% or more and less than 90%); Herbicidal effect by soil treatment, K: Italian ryegrass [14]: 0 (Herbicidal rate of 5% or less (almost no effect)); Herbicidal effect by soil treatment, R: persian speedwell [15]: 0 (Herbicidal rate of 5% or less (almost no effect)); Herbicidal effect by soil treatment, N: redroot pigweed [16]: 2 (Herbicidal rate of 20% or more and less than 40%)
